This note sets out measurements from US9801953B2, “Nanoparticles carrying nucleic acid cassettes for expressing RNA” (EMORY UNIVERSITY, priority 2012, dated 2017).

One data set relates to MIA PaCa-2 cells. Description: Crystal violet cell proliferation assay. As to conditions: Homo sapiens. The format is cell-based. An excerpt: Survivin is an anti-cell death gene that confers resistance of cancer cells to therapeutic agents. […] However, SV40-NLS-QD-siRNA nanocassettes could not be used for in vivo delivery due to the lack of specificity. Inhibition of survivin expression led to the activation of the apoptotic cell death since a high level of active caspase 3 (17 KDa fragments) was detected in those cell groups by Western blot analysis (FIG. 6B). Targeted internalization of hATF QD-survivin siRNA expressing nanocassettes were further confirmed in the MIA PaCa-2 cell line (FIG. 6C).
The effect of survivin gene silencing using hATF-QD-Survivin siRNA expressing nanocassettes was examined on cell sensitivity to chemotherapy drugs. […] Pancreatic cancer cells have a low sensitivity to free gemcitabine treatment and 60% of viable cells were detected by cell proliferation assay 72 h following 100 μM of gemcitabine treatment (FIG. 7A).
Crystal violet assay was used to determine the percentage of viable cells. […] Percentage of viable cells in the experimental groups was determined by measurements O.D. at 590 nm using Spectra Max Plus (Molecular Devices, Sunnyvale, Calif.). […] Cell lysates were analyzed for their levels of caspase 3-like activity, which is generated by caspases 3, 7, and 10, using an Ac-DEVD-AFC substrate (Calbiochem, San Diego, Calif.). […]

The conditions of data set [1]: mouse, in vivo.
Procedure: The tumor bearing mice then received 200 pmol of QDs carrying luciferase siRNA-expressing DNA cassettes (about 2 nmol of DNA cassettes) by tail vein injection. Before and at different time points following the nanoparticle administration, 2 mg/Kg of luciferin substrate was injected intraperitoneally into the mice for 5 min before each bioluminescence imaging procedure using identical imaging conditions and an Olympus OV-100 small animal imaging system (Olympus America Inc.).
Data set [2] has as its system luciferase positive MCF-10DCIS tumors. Description: Bioluminescence imaging of gene silencing in orthotopic breast cancer xenografts. The format is in vivo, nude mice. The method, then:
One of the major obstacles in applying siRNA technology to cancer therapy is the low delivery and gene silencing efficiencies in the tumor following systemic administration. To determine the gene silencing efficiency of uPAR-targeted siRNA expressing nanocassettes, hATF-QD-Luc siRNA nanocassettes were injected via the tail vein into nude mice bearing orthotopic luciferase positive MCF-10DCIS tumors. Non-invasive bioluminescence imaging was used at different time points to determine changes in the luciferase activity in the tumors. Twenty-four hours after the injection, the level of luciferase activity decreased by 42% in the mice that received hATF-QD-Luc siRNA nanocassettes.
To determine whether the changes in luciferase activity in the tumor were the result of specific silencing of the luciferase gene, mice bearing MCF-10DCIS tumors in the low abdominal mammary gland received a tail vein injection of either hATF-QD-Luc siRNA or hATF-QD-control siRNA nanocassettes. […] Therefore, the effect of down regulation of luciferase gene expression is likely due to the targeted delivery of luciferase siRNA-expressing nanocassettes into the tumor.

Data set [3] concerns MCF-10DCIS human breast cancer cells. Description: Target specificity / intracellular delivery of nanoparticles, fluorescence microscopy. In kind it is cell-based. The note with it: 15 pmol of QDs, 24 h. The method, then: (§1) To further quantify gene silencing efficiency in tumor cells in vitro and the detection of dynamic changes in the inhibition of gene expression in animal tumor models in vivo using bioluminescence imaging, U6-luciferase (Luc) siRNA expressing nanocassettes from p-Silencer-firefly luciferase shRNA plasmid were amplified. […] The inhibitory effect was enhanced as the copy number of Luc siRNA nanocassettes on each QD increased from 2 to 10 or 20 (FIG. 4B).
Cells were plated in 24-well culture plates for 24 h and then incubated with various nanoparticles at an equal molar concentration (15 pmol of QDs) for 24 h. Control unconjugated DNA cassettes or plasmids were transfected into cells. As a delivery efficiency control, siRNA expressing nanocassettes were also conjugated to QDs with the NLS peptides from SV40 virus, CGGGPKKKRKVE (SEQ ID NO: 10). The peptide sequence was provided by Dr. Steven Dowdy at University of California, San Diego. The SV-40-NLS peptides were synthesized by Genscript USA Inc. (Piscataway, N.J.). Culture plates were then examined using an inverted Olympus fluorescence microscope.

Data set [4] relates to firefly luciferase gene stably transfected human breast cancer MCF-10DCIS cell. Description: Luciferase activity assay in cell lysates. The format is cell-based. As to conditions: MCF-10DCIS cell lysates, 24 h after nanoparticle incubation.
Excerpt: as §1
Following different treatments, cells were collected from culture plates. Cell lysates were examined for luciferase activity using the Single Luciferase Assay System (Promega Corp., Madison, Wis.). The level of the luciferase activity was measured by a luminometer (Lumistar galaxy, BMG, Winooski, VM) for single samples or using the Xenogen IVIS system (Caliper Life Sciences, Mountain View, Calif.) for 96-well plates.

As for `Nc1ccn([C@@H]2O[C@H](CO)[C@@H](O)C2(F)F)c(=O)n1` [gemcitabine], the viability at 1 µM in the data set with MIA PaCa-2 cells (1 μM gemcitabine, free drug treated group, read-out: percentage of viable cells) turned out to be 94%. Also, in the data set with MIA PaCa-2 cells (100 μM gemcitabine, 72 h, read-out: viable cells), the viability at 100 µM came out at 60%.

“hATF-QD-Luc siRNA nanocassettes: U6-luciferase siRNA expressing DNA nanocassettes conjugated to QDs with human ATF targeting ligands”: in data set [1], the “levels of QD accumulation in the liver and spleen” value was “markedly decreased”. Further, the “decrease in level of luciferase activity in tumor” value in data set [2] (24 h after tail vein injection, 200 pmol QDs) is on record as 42%. For the same compound, the “inhibitory effect on luciferase activity in tumor” value in data set [2] (72 h after injection) was “further enhanced”. Further, in data set [2] (72 h after injection, specificity experiment (FIG. 5C)), the “decrease in luciferase activity in the tumor” value is on record as over 90%. Besides, the “luciferase activity in tumor versus pre-injection” value in data set [2] (140 h after injection) is on record as “returned to the pre-injection level”. In data set [2] (144 h after injection (FIG. 5C)), the “inhibitory effect on luciferase activity in the tumor” value is “still strong”. Also, the “duration of inhibitory effect on luciferase activity” value in data set [2] (after tail vein injection) is listed as “over 120 h”. Also, the “entry into cells (intracellular delivery efficiency)” value in data set [3] is listed as “could efficiently enter”. For the same compound, the luciferase activity entry in data set [4] is “decrease in luciferase activity”.
